Source: paper PMC3700073, “Synthesis and Biological Activity of New Thiopyrano[2,3-d]thiazoles Containing a Naphthoquinone Moiety” (Scientia Pharmaceutica, 2013)
Where two headings read alike, the source gives them in different places.

Key:
CCRF-CEM (leukemia) = test: NCI five-dose assay; type: cell-based; details: Homo sapiens
K-562 (leukemia) = test: NCI five-dose assay; type: cell-based; details: Homo sapiens, K562, K-562, leukemia
MOLT-4 (leukemia) = test: NCI five-dose assay; type: cell-based; details: Homo sapiens, MOLT-4, MOLT-4, leukemia
SR (leukemia) = test: NCI five-dose assay; type: cell-based; details: Homo sapiens
A549/ATCC (NSCL cancer) = test: NCI five-dose assay; type: cell-based; details: Homo sapiens
EKVX (NSCL cancer) = test: NCI five-dose assay; type: cell-based; details: Homo sapiens
HOP-62 (NSCL cancer) = test: NCI five-dose assay; type: cell-based; details: Homo sapiens, HOP-62, HOP-62, NSCL cancer
HOP-92 (NSCL cancer) = test: NCI five-dose assay; type: cell-based; details: Homo sapiens, HOP-92, HOP-92, NSCL cancer
NCI-H23 (NSCL cancer) = test: NCI five-dose assay; type: cell-based; details: Homo sapiens
NCI-H322M (NSCL cancer) = test: NCI five-dose assay; type: cell-based; details: Homo sapiens
NCI-H460 (NSCL cancer) = test: NCI five-dose assay; type: cell-based; details: Homo sapiens
LOX IMVI (melanoma) = test: NCI five-dose assay; type: cell-based; details: Homo sapiens
M14 (melanoma) = test: NCI five-dose assay; type: cell-based; details: Homo sapiens
SK-MEL-2 (melanoma) = test: NCI five-dose assay; type: cell-based; details: Homo sapiens, SK-MEL-2, SK-MEL-2, melanoma
SK-MEL-28 (melanoma) = test: NCI five-dose assay; type: cell-based; details: Homo sapiens, SK-MEL-28, SK-MEL-28, melanoma
SK-MEL-5 (melanoma) = test: NCI five-dose assay; type: cell-based, human; details: for GI50: Homo sapiens, SK-MEL-5, SK-MEL-5, melanoma
MCF-7 (breast cancer) = test: NCI five-dose assay; type: cell-based; details: Homo sapiens, MCF7, MCF-7, breast cancer
[1] = tested on: MDA-MB-435 (breast cancer); test: NCI five-dose assay; type: cell-based; details: Homo sapiens, MDA-MB-435, MDA-MB-435, breast cancer
T-47D (breast cancer) = test: NCI five-dose assay; type: cell-based; details: Homo sapiens, T47D
[2] = tested on: MDA-MB-231/ATCC (breast cancer); test: NCI five-dose assay; type: cell-based; details: Homo sapiens, MDA-MB-231, MDA-MB-231/ATCC
SF-268 (CNS cancer) = test: NCI five-dose assay; type: cell-based; details: Homo sapiens, SF-268, SF-268, CNS cancer
SF-295 (CNS cancer) = test: NCI five-dose assay; type: cell-based; details: Homo sapiens, SF-295, SF-295, CNS cancer
SF-539 (CNS cancer) = test: NCI five-dose assay; type: cell-based; details: Homo sapiens, SF-539, SF-539, CNS cancer
SNB-19 (CNS cancer) = test: NCI five-dose assay; type: cell-based; details: Homo sapiens, SNB-19, SNB-19, CNS cancer
U251 (CNS cancer) = test: NCI five-dose assay; type: cell-based; details: Homo sapiens, U-251, U251, CNS cancer
PC-3 (prostate cancer) = test: NCI five-dose assay; type: cell-based; details: Homo sapiens
DU-145 (prostate cancer) = test: NCI five-dose assay; type: cell-based; details: Homo sapiens, DU-145, DU-145, prostate cancer
OVCAR-3 (ovarian cancer) = test: NCI five-dose assay; type: cell-based; details: Homo sapiens, OVCAR-3, OVCAR-3, ovarian cancer
OVCAR-4 (ovarian cancer) = test: NCI five-dose assay; type: cell-based; details: Homo sapiens, OVCAR-4, OVCAR-4, ovarian cancer
OVCAR-5 (ovarian cancer) = test: NCI five-dose assay; type: cell-based; details: Homo sapiens, OVCAR-5, OVCAR-5, ovarian cancer
786-0 (renal cancer) = test: NCI five-dose assay; type: cell-based; details: Homo sapiens, 786-0, 786-0, renal cancer
ACHN (renal cancer) = test: NCI five-dose assay; type: cell-based; details: Homo sapiens
CAKI-1 (renal cancer) = test: NCI five-dose assay; type: cell-based; details: Homo sapiens, CAKI-1, CAKI-1, renal cancer
RXF-393 (renal cancer) = test: NCI five-dose assay; type: cell-based; details: Homo sapiens
TK-10 (renal cancer) = test: NCI five-dose assay; type: cell-based; details: Homo sapiens, TK-10, TK-10, renal cancer
UO-31 (renal cancer) = test: NCI five-dose assay; type: cell-based; details: Homo sapiens, UO-31, UO-31, renal cancer
HCT-15 (colon cancer) = test: NCI five-dose assay; type: cell-based; details: Homo sapiens, HCT-15, HCT-15, colon cancer
SW-620 (colon cancer) = test: NCI five-dose assay; type: cell-based; details: Homo sapiens, SW-620, SW-620, colon cancer
60 cancer cell lines = details: over the cell line panel

In the case of `COc1cc(C2C3=C(Sc4[nH]c(=O)sc42)C(=O)c2ccccc2C3=O)ccc1O` (centres unmarked) [Compound 4i, 11-(4-Hydroxy-3-methoxyphenyl)-3,11-dihydro-2H-benzo[6,7]thiochromeno[2,3-d]-[1,3]thiazole-2,5,10-trione], the GI50 (CCRF-CEM (leukemia)) is reported as 3190 nM, the GI50 (CCRF-CEM (leukemia); repeated testing) is reported as 1840 nM and the GI50 (K-562 (leukemia); repeated testing) is reported as 1980 nM. For the same molecule, the GI50 (K-562 (leukemia); result printed as symbol) was > 100000 nM, the GI50 (MOLT-4 (leukemia)) was 2770 nM and the GI50 (MOLT-4 (leukemia); repeated testing) was 3670 nM. It also gave a GI50 (SR (leukemia)) of 41400 nM, a GI50 (SR (leukemia); repeated testing) of 1960 nM and a GI50 (A549/ATCC (NSCL cancer)) of 1340 nM. The GI50 (A549/ATCC (NSCL cancer); repeated testing) was 650 nM, the GI50 (EKVX (NSCL cancer)) was 3240 nM and the GI50 (EKVX (NSCL cancer); repeated testing) was 4030 nM. It also gave a GI50 (HOP-62 (NSCL cancer)) of 400 nM, a GI50 (HOP-62 (NSCL cancer); repeated testing) of 3600 nM and a GI50 (HOP-92 (NSCL cancer)) of 1440 nM. For the same molecule, the GI50 (HOP-92 (NSCL cancer); repeated testing) was 2150 nM, the GI50 (NCI-H23 (NSCL cancer)) was 950 nM and the GI50 (NCI-H23 (NSCL cancer); repeated testing) was 410 nM. For the same molecule, the GI50 (NCI-H322M (NSCL cancer)) was 2050 nM, the GI50 (NCI-H322M (NSCL cancer); repeated testing) was 1860 nM and the GI50 (NCI-H460 (NSCL cancer)) was 1920 nM. For the same molecule, the GI50 (NCI-H460 (NSCL cancer); repeated testing) was 1660 nM, the GI50 (LOX IMVI (melanoma)) was 160 nM and the GI50 (LOX IMVI (melanoma); repeated testing) was 250 nM. For the same molecule, the GI50 (M14 (melanoma)) was 1250 nM, the GI50 (M14 (melanoma); repeated testing) was 1220 nM and the GI50 (SK-MEL-2 (melanoma)) was 2210 nM. For the same molecule, the GI50 (SK-MEL-2 (melanoma); repeated testing) was 980 nM, the GI50 (SK-MEL-28 (melanoma)) was 1790 nM and the GI50 (SK-MEL-28 (melanoma); repeated testing) was 1410 nM. For the same molecule, the GI50 (SK-MEL-5 (melanoma)) was 960 nM, the GI50 (SK-MEL-5 (melanoma); repeated testing) was 480 nM and the GI50 (MCF-7 (breast cancer)) was 1070 nM. The GI50 (MCF-7 (breast cancer); repeated testing) was 2260 nM, the GI50 [1] was 1380 nM and the GI50 ([1]; repeated testing) was 1480 nM. The GI50 (T-47D (breast cancer)) was 2560 nM, the GI50 [2] was 860 nM and the GI50 ([2]; repeated testing) was 1980 nM. For the same molecule, the GI50 (SF-268 (CNS cancer)) was 2530 nM, the GI50 (SF-268 (CNS cancer); repeated testing) was 3300 nM and the GI50 (SF-295 (CNS cancer)) was 1710 nM. The GI50 (SF-295 (CNS cancer); repeated testing) was 1140 nM, the GI50 (SF-539 (CNS cancer)) was 3260 nM and the GI50 (SF-539 (CNS cancer); repeated testing) was 3460 nM. The GI50 (SNB-19 (CNS cancer)) was 2410 nM, the GI50 (SNB-19 (CNS cancer); repeated testing) was 2850 nM and the GI50 (U251 (CNS cancer)) was 1630 nM. It also gave a GI50 (U251 (CNS cancer); repeated testing) of 2210 nM, a GI50 (PC-3 (prostate cancer)) of 1980 nM and a GI50 (PC-3 (prostate cancer); repeated testing) of 2570 nM. The GI50 (DU-145 (prostate cancer)) was 510 nM, the GI50 (DU-145 (prostate cancer); repeated testing) was 930 nM and the GI50 (OVCAR-3 (ovarian cancer)) was 1030 nM. For the same molecule, the GI50 (OVCAR-3 (ovarian cancer); repeated testing) was 570 nM, the GI50 (OVCAR-4 (ovarian cancer)) was 2190 nM and the GI50 (OVCAR-4 (ovarian cancer); repeated testing) was 1330 nM. The GI50 (OVCAR-5 (ovarian cancer)) was 10400 nM, the GI50 (OVCAR-5 (ovarian cancer); repeated testing) was 4490 nM and the GI50 (786-0 (renal cancer)) was 2600 nM. It also gave a GI50 (786-0 (renal cancer); repeated testing) of 5200 nM, a GI50 (ACHN (renal cancer)) of 2950 nM and a GI50 (ACHN (renal cancer); repeated testing) of 1660 nM. For the same molecule, the GI50 (CAKI-1 (renal cancer)) was 1500 nM, the GI50 (CAKI-1 (renal cancer); repeated testing) was 2920 nM and the GI50 (RXF-393 (renal cancer)) was 2520 nM. It also gave a GI50 (TK-10 (renal cancer)) of 5740 nM, a GI50 (TK-10 (renal cancer); repeated testing) of 2160 nM and a GI50 (UO-31 (renal cancer)) of 3330 nM. It also gave a GI50 (UO-31 (renal cancer); repeated testing) of 570 nM, a GI50 (HCT-15 (colon cancer)) of 2070 nM and a GI50 (HCT-15 (colon cancer); repeated testing) of 1740 nM. For the same molecule, the GI50 (SW-620 (colon cancer)) was 2820 nM, the GI50 (SW-620 (colon cancer); repeated testing) was 3230 nM and the “TGI MG_MID” value (60 cancer cell lines) was 10960 nM. The “TGI MG_MID” value (60 cancer cell lines; repeated testing) was “(8.51) μM”.
`COc1cc(C2C3=C(Sc4[nH]c(=O)sc42)C(=O)c2ccccc2C3=O)ccc1OCc1ccccc1` (centres unmarked) [Compound 4e, 11-[4-(Benzyloxy)-3-methoxyphenyl]-3,11-dihydro-2H-benzo[6,7]thiochromeno[2,3-d]-[1,3]thiazole-2,5,10-trione] showed a GI50 (CCRF-CEM (leukemia)) of 23400 nM, a GI50 (K-562 (leukemia)) of 19400 nM and a GI50 (MOLT-4 (leukemia)) of 17300 nM. For the same molecule, the GI50 (SR (leukemia)) was 13800 nM, the GI50 (A549/ATCC (NSCL cancer)) was 3160 nM and the GI50 (EKVX (NSCL cancer)) was 16300 nM. For the same molecule, the GI50 (HOP-62 (NSCL cancer)) was 14900 nM, the GI50 (HOP-92 (NSCL cancer)) was 11500 nM and the GI50 (NCI-H23 (NSCL cancer)) was 3990 nM. It also gave a GI50 (NCI-H322M (NSCL cancer)) of 10900 nM, a GI50 (NCI-H460 (NSCL cancer)) of 5390 nM and a GI50 (LOX IMVI (melanoma)) of 8030 nM. It also gave a GI50 (M14 (melanoma)) of 6900 nM, a GI50 (SK-MEL-2 (melanoma)) of 20300 nM and a GI50 (SK-MEL-28 (melanoma)) of 12200 nM. For the same molecule, the GI50 (SK-MEL-5 (melanoma)) was 2620 nM, the “TGI of the most sensitive cell line” value (SK-MEL-5 (melanoma); SK-MEL-5 /melanoma/) was 2.62 / 6.90 μM and the GI50 (MCF-7 (breast cancer)) was 12900 nM. For the same molecule, the GI50 [1] was 12000 nM, the GI50 (T-47D (breast cancer)) was 16100 nM and the GI50 [2] was 7810 nM. It also gave a GI50 (SF-268 (CNS cancer)) of 14100 nM, a GI50 (SF-295 (CNS cancer)) of 5780 nM and a GI50 (SF-539 (CNS cancer)) of 16700 nM. The GI50 (SNB-19 (CNS cancer)) was 11300 nM, the GI50 (U251 (CNS cancer)) was 15100 nM and the GI50 (PC-3 (prostate cancer)) was 17700 nM. It also gave a GI50 (DU-145 (prostate cancer)) of 4190 nM, a GI50 (OVCAR-3 (ovarian cancer)) of 11200 nM and a GI50 (OVCAR-4 (ovarian cancer)) of 4480 nM. For the same molecule, the GI50 (OVCAR-5 (ovarian cancer)) was 32100 nM, the GI50 (786-0 (renal cancer)) was 32600 nM and the GI50 (ACHN (renal cancer)) was 17800 nM. The GI50 (CAKI-1 (renal cancer)) was 17400 nM, the GI50 (RXF-393 (renal cancer)) was 6980 nM and the GI50 (TK-10 (renal cancer)) was 29700 nM. It also gave a GI50 (UO-31 (renal cancer)) of 5620 nM, a GI50 (HCT-15 (colon cancer)) of 11500 nM and a GI50 (SW-620 (colon cancer)) of 22700 nM. The “TGI MG_MID” value (60 cancer cell lines) was 40740 nM.
